Several values for one entry are separate records, joined by “and”; a condition that tells them apart may be missing. Identical values can stand only once.
Experiments:
[1] = tested on: B16-F10 murine melanoma cell line; assay: Cytotoxicity (MTT) in B16-F10 murine melanoma cells; format: cell-based; conditions: 48 h
Method: Cytotoxicity Assessment in the B16-F10 Murine Melanoma Cell Line (ATTC CRL-6745)—Preliminary Safety Assessment for Subsequent Studies
In order to determine safe doses of compounds for testing the inhibition of melanogenesis in a murine melanoma cell line, cytotoxicity tests were performed. Cytotoxicity was determined by the colorimetric method using MTT ([3-(4,5-dimethyl-2-thiazolyl)-2,5-diphenyl-2H-tetrazolium bromide, Sigma M5655). For this purpose, cells were transferred to 96-well plates in an amount of 5000/well. After 24 h of culture in an incubator in F10-Ham medium with 1% FBS, the tested compounds at various concentrations were added to the wells together with fresh medium. DMSO was added to the medium in a negative control. The MTT test was performed after further culture for 48 h. Then the medium was removed and the formed formazan crystals were dissolved in DMSO. The absorbance was measured at 570 nm in a plate reader and the result was compared to the control (DMSO), which was 100%. The percentage of viability was calculated using the formula: [AT/AC*100], where AT is the absorbance of the test sample, AC—absorbance of the control sample.

[2] = Lipophilicity coefficient RM0 by reversed phase thin layer chromatography; format: physicochemical; conditions: RP-18 TLC, methanol/phosphate buffer pH=7.4
Method: Confirmation of the identity and purity of the obtained compounds consisted in the registration and interpretation of 1H NMR and 13C NMR spectra (the spectra were recorded using an ECZR 500 MHZ (JEOL) series FT-NMR spectrophotometer), as well as the registration and interpretation of LC-MS spectra (the spectra were recorded using Acquita UPLC system (Waters) coupled with a Waters TQD mass spectrometer). The melting point was measured using the open capillary method in the IA9300 device (Electrothermal). The lipophilicity coefficient RM0 was determined by reversed phase thin layer chromatography. In the study, aluminum plates 20×20 cm covered with modified silica gel RP-18 F254 (Merck) were used as the solid phase. The mobile phase consisted of solutions of methanol and 100 mM phosphate buffer (pH=7.4), characterized by a variable methanol content ranging from 95 to 65% (v/v). The tested compounds were dissolved in methanol to obtain solutions with a concentration of 1 mg/mL. Then, […] of the solutions prepared in this way were transferred to the starting line on aluminum plates, which were then placed in chromatographic chambers previously saturated with mobile phase vapors for at least 1 hour. All activities, including the development of chromatograms, were carried out at room temperature. After developing the chromatograms to approximately 1-2 cm from the end of the plate, the plates were dried and then the distance traveled by the tested compounds was visualized under UV light (λ=254 nm). The experiment was performed in duplicate for the specified conditions. For all samples, Rf was calculated according to the formula Rf=a/b, where a—the distance traveled by the tested compound, b—the distance traveled by the mobile phase. Then, the RM parameter was calculated for all samples according to the formula RM=log (1/Rf−1), obtaining a linear relationship between the RM values and the methanol concentration in the mobile phase. The log P coefficient was also calculated using the following computer programs: ACD/ChemSketch 2020.1.2 and ChemDraw 20.0.0.41.

[3] = biological target: T1, tyrosinase from mushroom (Agaricus bisporus, UniProt C7FF04); assay: Inhibition of commercial mushroom tyrosinase, substrate L-DOPA; format: biochemical; conditions: 500 μM; read-out: Tyrosinase inhibition with L-DOPA [%]
Method: (§1) Studies on the Inhibition of the Activity of Commercial Tyrosinase from Mushroom (Sigma: T3824)
(§2) The following substrates were used for the enzymatic reaction: L-tyrosine and L-3,4-dihyroxyphenylalanine (L-DOPA). Both substrates were used in independent experiments. According to the literature, the use of L-DOPA enables the assessment of tyrosinase diphenolase activity, and L-tyrosine—the tyrosinase monophenolase activity. The determinations were performed in 96-well plates, in each well there was placed: 170 μL or 127.5 μL of 50 mM phosphate buffer (pH=6.8) with tyrosinase (1U/well or 3U/well) and 10 μL of a solution of the tested compound in DMSO (the final concentration in the well was 500 μM, 250 μM or 125 μM). The negative control used 10 u L of pure solvent (DMSO). To initiate the reaction, an appropriate substrate was added: L-tyrosine (62.5 μL of solution in phosphate buffer) or L-DOPA (20 μL of solution in phosphate buffer). After a 25-minute incubation, the absorbance was measured at 475 nm using a microplate reader. The percentage of inhibition of tyrosinase activity was calculated using the formula: [(AC−AT)/[…], where AC—is the absorbance of the negative control, AT—is the absorbance of the sample containing the tested compound.

[4] = biological target: T1, tyrosinase from mushroom; assay: Inhibition of commercial mushroom tyrosinase, substrate L-tyrosine; format: biochemical; conditions: 500 μM; read-out: Tyrosinase inhibition with L-tyrosine [%]
Method: as §1, §2

[5] = tested on: S. typhimurium TA98; assay: Ames microplate test, TA98; format: cell-based, Salmonella typhimurium; conditions: positive control 0.5 μg/mL, + S9
Method: Bacteria were grown overnight in growth medium.

[6] = tested on: S. typhimurium TA100; assay: Ames microplate test, TA100; format: cell-based, Salmonella typhimurium; conditions: positive control 1.25 μg/mL, + S9
[7] = tested on: S. typhimurium TA1535; assay: Ames microplate test, TA1535; conditions: positive control 2.5 μg/mL, + S9;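 note: bacteria exposed 90 min at 37 °C in exposure medium, then 48 h in indicator medium in 384-well plates, yellow (revertant) wells counted per condition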
Method: The study used the Ames microplate test (Ames MPF™ Penta 2 by Xenometrix, Allschwil, Switzerland). Growth medium, exposure medium, indicator medium, positive controls, hepatic microsomal fraction, NADP, glucose-6-phosphate, Salmonella typhimurium and Escherichia coli strains were components of the purchased experimental kit. Bacteria were grown overnight in growth medium. They were then exposed to the test compound at the appropriate concentration in exposure medium without or with the rat microsomal fraction S9 in 24-well plates for 90 min at 37° C. with shaking. Then, indicator medium was added to the wells and pipetted into 384-well plates, which were incubated for 48 hours at 37° C. without shaking. Results were assessed by counting the wells in which the medium turned yellow for each experimental condition.

T1 sequence (C7FF04 2-392): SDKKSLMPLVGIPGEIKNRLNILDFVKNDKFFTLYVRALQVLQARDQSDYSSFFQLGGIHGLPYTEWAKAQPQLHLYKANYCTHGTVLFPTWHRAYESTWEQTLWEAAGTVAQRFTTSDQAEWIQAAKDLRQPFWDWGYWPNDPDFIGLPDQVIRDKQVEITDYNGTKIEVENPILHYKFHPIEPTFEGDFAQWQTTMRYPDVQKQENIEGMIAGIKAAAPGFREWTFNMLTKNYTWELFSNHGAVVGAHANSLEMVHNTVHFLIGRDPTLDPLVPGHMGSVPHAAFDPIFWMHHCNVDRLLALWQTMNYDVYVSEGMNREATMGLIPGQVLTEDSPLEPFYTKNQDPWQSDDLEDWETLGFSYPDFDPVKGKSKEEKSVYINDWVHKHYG
T1 sequence (G1K3P4 entry or part of it, further chain): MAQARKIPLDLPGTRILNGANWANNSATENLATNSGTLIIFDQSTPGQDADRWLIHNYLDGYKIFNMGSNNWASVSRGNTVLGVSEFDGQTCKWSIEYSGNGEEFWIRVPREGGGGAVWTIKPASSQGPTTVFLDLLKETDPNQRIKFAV

SMILES	RM0 [2]	inhibition at 500 µM [3] [%]	inhibition at 500 µM [4] [%]	Cytotoxicity study in B16F10 cells, % viability ([1]; 150 μM) [%]	Cytotoxicity study in B16F10 cells, % viability ([1]; 200 μM) [%]	Cytotoxicity study in B16F10 cells, % viability ([1]; 250 μM) [%]	Cytotoxicity study in B16F10 cells, % viability ([1]; 12.5 μM) [%]	Cytotoxicity study in B16F10 cells, % viability ([1]; 25 μM) [%]	Cytotoxicity study in B16F10 cells, % viability ([1]; 50 μM) [%]	Increase in the number of yellow wells compared to the reference level, TA98 [5]	Increase in the number of yellow wells compared to the reference level, TA100 [6]	Increase in the number of yellow wells compared to the reference level, TA1535 [7]
CCC(CO)NC(=O)/C=C/c1ccc(C)cc1 (centres unmarked) [H-409/21, (2E)-N-(1-hydroxybutan-2-yl)-3-(4-methylphenyl)prop-2-enamide]	2.49	21.8 ± 2.31	15.3 ± 8.27	83.2	95.3	103.4	–	–	–	–	–	–
O=C(/C=C/c1ccc(Cl)cc1)NCCCCO [H-331/21, (2E)-3-(4-chlorophenyl)-N-(4-hydroxybutyl)prop-2-enamide]	2.14	64.31 ± 0.21	82.5 ± 0.87	32.7	51.9	52.7	49.0	47.8	54.2	–	–	–
O=C(/C=C/c1ccc(Cl)cc1Cl)NCCCCCO [H-297/20, (2E)-3-(2,4-dichlorophenyl)-N-(5-hydroxypentyl)prop-2-enamide]	3.08	20.5 ± 2.84	19.1 ± 2.53	102.3	73.6	88.5	–	–	–	–	–	–
CCC(O)CNC(=O)/C=C/c1ccc(Cl)cc1Cl (centres unmarked) [H-320/21, (2E)-3-(2,4-dichlorophenyl)-N-(2-hydroxybutyl)prop-2-enamide]	3.08	5.8 ± 3.04	24.4 ± 8.05	101.7	90.8	33.9	–	–	–	–	–	–
O=C(/C=C/c1ccc(Cl)cc1Cl)N1CCC(O)CC1 [H-310/20, (2E)-3-(2,4-dichlorophenyl)-1-(4-hydroxypiperidin-1-yl)prop-2-en-1-one]	2.80	7.23 ± 0.81	19.2 ± 3.44	89.5	100.4	93.0	–	–	–	–	–	–
CCC(CO)NC(=O)/C=C/c1ccc(Cl)cc1Cl (centres unmarked) [H-285/20, (2E)-3-(2,4-dichlorophenyl)-N-(1-hydroxybutan-2-yl)prop-2-enamide]	3.08	0.21 ± 5.64	14.6 ± 1.63	84.2	74.8	24.6	–	–	–	–	–	–
Nc1ccc2cc3ccccc3cc2c1 [Compound 2-AA, 2-aminoanthracene, reference compound]	–	–	–	–	–	–	–	–	–	24.00 and 15.03	4.00	–
O=C(/C=C/c1ccccc1)NCCO [H-429/21, (2E)-N-(2-hydroxyethyl)-3-phenylprop-2-enamide]	1.27	30.5 ± 1.2	21 ± 8.83	86.4	79.8	80.9	–	–	–	–	–	–
Cc1ccc(/C=C/C(=O)NCCCO)cc1 [H-410/21, (2E)-N-(3-hydroxypropyl)-3-(4-methylphenyl)prop-2-enamide]	2.04	17 ± 5.66	0.51 ± 5.4	88.8	90.7	79.8	–	–	–	–	–	–
Nc1c2ccccc2nc2ccccc12 [Compound 9-AA, reference compound]	–	–	–	–	–	–	–	–	–	–	–	10.25 and 15.41

Further lines, with some results ahead:

RM0 [2]	inhibition at 500 µM [3] [%]	inhibition at 500 µM [4] [%]	SMILES	Cytotoxicity study in B16F10 cells, % viability ([1]; 150 μM) [%]	Cytotoxicity study in B16F10 cells, % viability ([1]; 200 μM) [%]	Cytotoxicity study in B16F10 cells, % viability ([1]; 250 μM) [%]	Cytotoxicity study in B16F10 cells, % viability ([1]; 12.5 μM) [%]	Cytotoxicity study in B16F10 cells, % viability ([1]; 25 μM) [%]	Cytotoxicity study in B16F10 cells, % viability ([1]; 50 μM) [%]	Increase in the number of yellow wells compared to the reference level, TA98 [5]	Increase in the number of yellow wells compared to the reference level, TA100 [6]	Increase in the number of yellow wells compared to the reference level, TA1535 [7]
1.60	34.5 ± 4.18	35.5 ± 1.37	O=C(/C=C/c1ccccc1)NCCCCO [Compound A-43, (2E)-N-(4-hydroxybutyl)-3-phenylprop-2-enamide]	108.9	105.7	103.2	–	–	–	–	–	–
2.39	21.2 ± 1.26	30.2 ± 10.2	CCC(O)CNC(=O)/C=C/c1ccc(C)cc1 (centres unmarked) [Compound A-63, (2E)-N-(2-hydroxybutyl)-3-(4-methylphenyl)prop-2-enamide]	90.2	87.3	87.4	–	–	–	–	–	–
2.27	–	75.1 ± 1.6	O=C(/C=C/c1ccc(Cl)cc1)N1CCC(O)CC1 [Compound A-99, (2E)-3-(4-chlorophenyl)-1-(4-hydroxypiperidin-1-yl)prop-2-en-1-one]	109.8	102.6	96.6	–	–	–	–	–	–
2.43	44 ± 2.6	61.8 ± 0.4	CCC(CO)NC(=O)/C=C/c1ccc(Cl)cc1 (centres unmarked) [Compound A-01, (2E)-3-(4-chlorophenyl)-N-(1-hydroxybutan-2-yl)prop-2-enamide]	73.6	93.2	85.4	–	–	–	–	–	–
2.17	23 ± 6.64	4.4 ± 7.15	Cc1ccc(/C=C/C(=O)NC(C)CO)cc1 (centres unmarked) [Compound A-69, (2E)-N-(1-hydroxypropan-2-yl)-3-(4-methylphenyl)prop-2-enamide]	96.6	101.3	97.5	–	–	–	–	–	–
1.60	34.2 ± 2.32	27.4 ± 2.24	O=C(/C=C/c1ccccc1)NCCCO [KM-634, (2E)-N-(3-hydroxypropyl)-3-phenylprop-2-enamide]	76.1	70.5	63.3	–	–	–	–	–	–
2.76	41.2 ± 0.81	57.6 ± 2.11	CC(C)C(CO)NC(=O)/C=C/c1ccc(Cl)cc1 (centres unmarked) [Compound A-106, (2E)-3-(4-chlorophenyl)-N-(1-hydroxy-3-methylbutan-2-yl)prop-2-enamide]	85.9	88.1	72.6	–	–	–	–	–	–

Reference: patent publication US20250263376A1, “(E)-N-CINNAMOYLAMINOALKANOLS WITH MELANOGENESIS INHIBITORY ACTIVITY” (Uniwersytet Jagiellonski, priority 2024, published 2025)
